# Data published in US7880007B2, “Bicyclic substituted phenyl piperidine modulators of muscarinic receptors” (Vertex Pharmaceuticals Incorporated, priority 2004, dated 2011).
# How the values were obtained:
# Assay type in all cases: cell-based
# M2 muscarinic receptor = target: T1, M2 muscarinic receptor (Homo sapiens, UniProt P08172); test: Functional mobilization of intracellular calcium (FLIPR), M2-CHO cells; conditions: for M2 Activity: M2-CHO cells, calcium mobilization (FLIPR)
# T1 construct: expressed in transfected cells; host or cells: CHO (M2-CHO)
# T1 sequence (P08172 1-466): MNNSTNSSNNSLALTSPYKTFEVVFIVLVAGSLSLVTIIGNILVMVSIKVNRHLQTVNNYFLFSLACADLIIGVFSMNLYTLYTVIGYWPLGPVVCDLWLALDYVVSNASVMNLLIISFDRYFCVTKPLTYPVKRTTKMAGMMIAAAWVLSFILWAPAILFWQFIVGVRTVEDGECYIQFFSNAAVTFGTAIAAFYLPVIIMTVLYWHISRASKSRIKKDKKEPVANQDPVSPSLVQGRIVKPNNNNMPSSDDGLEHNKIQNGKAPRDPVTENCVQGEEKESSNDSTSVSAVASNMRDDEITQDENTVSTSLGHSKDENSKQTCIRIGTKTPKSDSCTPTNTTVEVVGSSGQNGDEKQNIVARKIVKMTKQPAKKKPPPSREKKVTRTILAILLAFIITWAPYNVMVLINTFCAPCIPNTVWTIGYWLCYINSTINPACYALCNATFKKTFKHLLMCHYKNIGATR
# Method in brief: (§1)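 Calcium mobilisation read by FLIPR over 60 s (ex 488/em 540 nm) in recombinant muscarinic CHO lines loaded with calcium dye plus 1 mM probenecid. Compounds tested as agonists alone, or as inhibitors against EC80 carbachol after 15 min pre-incubation or co-addition; 0.5% DMSO; efficacy scaled to carbachol maximal response.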
# M1 muscarinic receptor = target: T2, M1 muscarinic receptor (Homo sapiens, UniProt P11229); test: Functional mobilization of intracellular calcium (FLIPR), M1-CHO cells; conditions: for M1 Activity: M1-CHO cells, calcium mobilization (FLIPR)
# T2 construct: expressed in transfected cells; host or cells: CHO (M1-CHO)
# T2 sequence (P11229 1-460): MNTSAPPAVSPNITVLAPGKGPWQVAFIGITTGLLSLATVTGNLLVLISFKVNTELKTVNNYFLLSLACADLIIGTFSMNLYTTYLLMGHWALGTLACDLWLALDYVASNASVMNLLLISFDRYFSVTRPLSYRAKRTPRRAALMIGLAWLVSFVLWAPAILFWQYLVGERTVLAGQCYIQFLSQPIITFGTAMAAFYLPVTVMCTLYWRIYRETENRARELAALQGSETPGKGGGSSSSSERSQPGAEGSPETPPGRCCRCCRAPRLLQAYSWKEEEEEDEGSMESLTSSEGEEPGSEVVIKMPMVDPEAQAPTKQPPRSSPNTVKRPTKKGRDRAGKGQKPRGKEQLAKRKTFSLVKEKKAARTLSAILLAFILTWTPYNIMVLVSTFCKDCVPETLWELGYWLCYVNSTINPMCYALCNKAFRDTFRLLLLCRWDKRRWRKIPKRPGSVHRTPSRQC
# Method in brief: as §1
# M4 muscarinic receptor = target: T3, M4 muscarinic receptor (Homo sapiens, UniProt P08173); test: Functional mobilization of intracellular calcium (FLIPR), M4-CHO cells; conditions: for M4 Activity: M4-CHO cells, calcium mobilization (FLIPR)
# T3 construct: expressed in transfected cells; host or cells: CHO (M4-CHO)
# T3 sequence (P08173 1-479): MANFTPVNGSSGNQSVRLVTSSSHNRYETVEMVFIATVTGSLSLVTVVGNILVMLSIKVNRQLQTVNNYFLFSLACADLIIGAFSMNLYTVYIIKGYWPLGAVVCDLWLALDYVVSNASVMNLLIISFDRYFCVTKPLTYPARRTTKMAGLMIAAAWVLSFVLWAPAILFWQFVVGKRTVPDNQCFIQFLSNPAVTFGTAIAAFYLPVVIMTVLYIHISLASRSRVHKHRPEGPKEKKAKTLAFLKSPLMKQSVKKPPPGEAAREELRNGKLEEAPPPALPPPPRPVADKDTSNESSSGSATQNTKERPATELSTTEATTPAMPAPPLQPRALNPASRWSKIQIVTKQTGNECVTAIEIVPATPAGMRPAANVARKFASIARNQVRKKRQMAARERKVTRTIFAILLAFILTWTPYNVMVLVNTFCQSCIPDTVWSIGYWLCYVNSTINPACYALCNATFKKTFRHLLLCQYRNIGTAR
# Method in brief: as §1
# M3 muscarinic receptor = target: T4, M3 muscarinic receptor (Homo sapiens, UniProt P20309); test: Functional mobilization of intracellular calcium (FLIPR), M3-CHO cells; conditions: for M3 Activity: M3-CHO cells, calcium mobilization (FLIPR)
# T4 construct: expressed in transfected cells; host or cells: CHO (M3-CHO)
# T4 sequence (P20309 whole entry): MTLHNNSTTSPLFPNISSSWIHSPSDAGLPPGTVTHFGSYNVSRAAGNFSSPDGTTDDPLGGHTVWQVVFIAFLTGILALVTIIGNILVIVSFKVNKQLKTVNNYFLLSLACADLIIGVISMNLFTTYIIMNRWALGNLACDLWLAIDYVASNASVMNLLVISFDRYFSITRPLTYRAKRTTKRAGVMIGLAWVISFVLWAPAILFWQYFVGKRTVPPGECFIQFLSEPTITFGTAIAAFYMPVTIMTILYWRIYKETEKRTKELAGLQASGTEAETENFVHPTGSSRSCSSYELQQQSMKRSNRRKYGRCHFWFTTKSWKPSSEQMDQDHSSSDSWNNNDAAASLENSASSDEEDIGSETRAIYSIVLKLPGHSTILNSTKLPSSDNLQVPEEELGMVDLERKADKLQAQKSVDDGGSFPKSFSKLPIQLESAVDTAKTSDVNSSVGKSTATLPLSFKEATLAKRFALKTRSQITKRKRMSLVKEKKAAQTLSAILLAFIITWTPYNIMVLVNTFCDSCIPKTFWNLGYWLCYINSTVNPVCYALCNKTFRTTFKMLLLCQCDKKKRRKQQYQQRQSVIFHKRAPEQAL
# Method in brief: as §1
# [1] = 100% efficacy = maximum response obtained with the Carbachol control
# [2] = 100% efficacy is the maximum response obtained with the Carbachol control
SMILES,M2 Efficacy (M2 muscarinic receptor; [1]),M2 Activity (M2 muscarinic receptor),M1 Efficacy (M1 muscarinic receptor; [1]),M1 Activity (M1 muscarinic receptor),M4 Efficacy (M4 muscarinic receptor; [1]),M4 Activity (M4 muscarinic receptor),M3 Efficacy (M3 muscarinic receptor; [1]),M3 Activity (M3 muscarinic receptor),Emax (M2 muscarinic receptor; [1]) [%],Emax (M1 muscarinic receptor; [1]) [%],Emax (M4 muscarinic receptor; [1]) [%],Emax (M3 muscarinic receptor; [1]) [%],Emax (M2 muscarinic receptor; [2]) [%],Emax (M1 muscarinic receptor; [2]) [%],Emax (M4 muscarinic receptor; [2]) [%],Emax (M3 muscarinic receptor; [2]) [%]
CCOC(=O)N1CCC(N2CCC(F)(c3cc(Cl)ccc3OC)CC2)CC1 [Compound 368],++ (efficacy was calculated to be from 100% to 25%),++ (activity was measured to be from 1.0 μM to 5.0 μM),++ (efficacy was calculated to be from 100% to 25%),++ (activity was measured to be from 1.0 μM to 5.0 μM),++ (efficacy was calculated to be from 100% to 25%),+++ (activity was measured to be less than 1.0 μM),+ (efficacy was calculated to be less than 25%),+ (activity was measured to be greater than 5.0 μM),–,–,–,–,–,–,–,–
COc1ccccc1C1CCN(CC2CCOC2)CC1 (stereo not drawn) [Compound 369],–,+ (activity was measured to be greater than 5.0 μM),–,+ (activity was measured to be greater than 5.0 μM),–,++ (activity was measured to be from 1.0 μM to 5.0 μM),–,+ (activity was measured to be greater than 5.0 μM),< 25,25 to 100,25 to 100,< 25,–,–,–,–
COc1ccccc1C1CCN(C2CCC(C3CCC(=O)CC3)CC2)CC1 (stereo not drawn) [Compound 370],–,+ (activity was measured to be greater than 5.0 μM),–,+ (activity was measured to be greater than 5.0 μM),–,++ (activity was measured to be from 1.0 μM to 5.0 μM),–,+ (activity was measured to be greater than 5.0 μM),< 25,< 25,25 to 100,< 25,–,–,–,–
COc1ccc(F)cc1C1CCN(C2CC3CCC2C3)CC1 (stereo not drawn) [Compound 371],–,++ (activity was measured to be from 1.0 μM to 5.0 μM),–,++ (activity was measured to be from 1.0 μM to 5.0 μM),–,+++ (activity was measured to be less than 1.0 μM),–,+ (activity was measured to be greater than 5.0 μM),25 to 100,25 to 100,25 to 100,< 25,–,–,–,–
COc1ccc(Cl)cc1C1CCN(C2(C)CCOCC2)CC1 [Compound 372],–,++ (activity was measured to be from 1.0 μM to 5.0 μM),–,++ (activity was measured to be from 1.0 μM to 5.0 μM),–,+++ (activity was measured to be less than 1.0 μM),–,+ (activity was measured to be greater than 5.0 μM),–,–,–,–,25 to 100,25 to 100,25 to 100,< 25
COc1ccccc1C1(C#N)CCN(CC2CCOCC2)CC1 [Compound 373],–,+ (activity was measured to be greater than 5.0 μM),–,+ (activity was measured to be greater than 5.0 μM),–,+ (activity was measured to be greater than 5.0 μM),–,+ (activity was measured to be greater than 5.0 μM),–,–,–,–,< 25,< 25,25 to 100,< 25
COc1ccccc1C1CCN(C2CCCC(O)CCC2)CC1 (stereo not drawn) [Compound 374],–,+ (activity was measured to be greater than 5.0 μM),–,+ (activity was measured to be greater than 5.0 μM),–,++ (activity was measured to be from 1.0 μM to 5.0 μM),–,+ (activity was measured to be greater than 5.0 μM),–,–,–,–,< 25,< 25,25 to 100,< 25
OC1(c2cc(Cl)cc(Cl)c2)CCN(C2C[C@H]3CC[C@H]2C3)CC1 (stereo partly drawn) [Compound 375],–,+ (activity was measured to be greater than 5.0 μM),–,+ (activity was measured to be greater than 5.0 μM),–,+ (activity was measured to be greater than 5.0 μM),–,+ (activity was measured to be greater than 5.0 μM),–,–,–,–,< 25,< 25,25 to 100,< 25
COc1ccc(Cl)cc1C1CCN(C2CCSCC2)CC1 [Compound 376],–,+ (activity was measured to be greater than 5.0 μM),–,++ (activity was measured to be from 1.0 μM to 5.0 μM),–,+++ (activity was measured to be less than 1.0 μM),–,+ (activity was measured to be greater than 5.0 μM),–,–,–,–,< 25,25 to 100,25 to 100,< 25
COc1ccc(C#CC2(O)CCCCC2)cc1C1CCN([C@@H]2C[C@H]3CC[C@H]2C3)CC1 [Compound 377],–,+ (activity was measured to be greater than 5.0 μM),–,+ (activity was measured to be greater than 5.0 μM),–,+++ (activity was measured to be less than 1.0 μM),–,+ (activity was measured to be greater than 5.0 μM),–,–,–,–,< 25,< 25,25 to 100,< 25
Fc1ccccc1C1CCN(C2CCOCC2)CC1 [Compound 378],–,+ (activity was measured to be greater than 5.0 μM),–,+ (activity was measured to be greater than 5.0 μM),–,+++ (activity was measured to be less than 1.0 μM),–,+ (activity was measured to be greater than 5.0 μM),–,–,–,–,< 25,25 to 100,25 to 100,< 25
Cc1ccc(F)cc1C1CCN([C@@H]2C[C@H]3CC[C@H]2C3)CC1 [Compound 381],–,++ (activity was measured to be from 1.0 μM to 5.0 μM),–,++ (activity was measured to be from 1.0 μM to 5.0 μM),–,+++ (activity was measured to be less than 1.0 μM),–,+ (activity was measured to be greater than 5.0 μM),–,–,–,–,25 to 100,25 to 100,25 to 100,< 25
COc1ccc(-c2ccc3c(c2)OCO3)cc1C1CCN(C2CCCCC2)CC1 [Compound 382],–,+ (activity was measured to be greater than 5.0 μM),–,+ (activity was measured to be greater than 5.0 μM),–,+ (activity was measured to be greater than 5.0 μM),–,+ (activity was measured to be greater than 5.0 μM),–,–,–,–,< 25,< 25,25 to 100,< 25
COc1ccc(-c2ccc(C#N)cc2)cc1C1CCN([C@@H]2C[C@H]3CC[C@H]2C3)CC1 [Compound 383],–,+ (activity was measured to be greater than 5.0 μM),–,+ (activity was measured to be greater than 5.0 μM),–,++ (activity was measured to be from 1.0 μM to 5.0 μM),–,+ (activity was measured to be greater than 5.0 μM),–,–,–,–,< 25,25 to 100,25 to 100,< 25
CCC(C)Oc1ccccc1C1CCN([C@H]2C[C@H]3CC[C@H]2C3)CC1 (stereo partly drawn) [Compound 384],–,+ (activity was measured to be greater than 5.0 μM),–,+ (activity was measured to be greater than 5.0 μM),–,++ (activity was measured to be from 1.0 μM to 5.0 μM),–,+ (activity was measured to be greater than 5.0 μM),–,–,–,–,< 25,25 to 100,25 to 100,< 25
